# Assay results reported in PubChem BioAssay (NCI).
#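 Protocol summary: plate cells (96-well), add compound at 5 concentrations, incubate 48 h, interpolate endpoints linearly. The concentration for full growth arrest is given as TGI.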
# Columns and labels:
# Assay in all cases: DTP human tumour cell line panel, 48 h
# NCI-H522 lung = test system: NCI-H522 lung
# SNB-75 CNS = test system: SNB-75 CNS
# EKVX NSCLC = test system: EKVX NSCLC
# UO-31 renal = test system: UO-31 renal
# M19-MEL melanoma = test system: M19-MEL melanoma
# SNB-78 CNS = test system: SNB-78 CNS
# NCI-H23 lung = test system: NCI-H23 lung
# COLO 205 colon = test system: COLO 205 colon
# CCRF-CEM leukemia = test system: CCRF-CEM leukemia
# A498 renal = test system: A498 renal
# HOP-92 NSCLC = test system: HOP-92 NSCLC
# HOP-62 NSCLC = test system: HOP-62 NSCLC
# HCC-2998 colon = test system: HCC-2998 colon
# SK-OV-3 ovarian = test system: SK-OV-3 ovarian
# SF-268 CNS = test system: SF-268 CNS
# SK-MEL-5 melanoma = test system: SK-MEL-5 melanoma
# HCT-116 colon = test system: HCT-116 colon
# SK-MEL-2 melanoma = test system: SK-MEL-2 melanoma
# OVCAR-3 ovarian = test system: OVCAR-3 ovarian
# IGROV1 ovarian = test system: IGROV1 ovarian
# 786-0 renal = test system: 786-0 renal
# OVCAR-5 ovarian = test system: OVCAR-5 ovarian
# KM20L2 colon = test system: KM20L2 colon
# K-562 leukemia = test system: K-562 leukemia
# NCI-H226 lung = test system: NCI-H226 lung
# M14 melanoma = test system: M14 melanoma
# A549 NSCLC = test system: A549 NSCLC
# DMS 273 small cell lung = test system: DMS 273 small cell lung
# OVCAR-4 ovarian = test system: OVCAR-4 ovarian
# TK-10 renal = test system: TK-10 renal
# DLD-1 colon = test system: DLD-1 colon
# LXFL 529 NSCLC = test system: LXFL 529 NSCLC
# HL-60(TB) leukemia = test system: HL-60(TB) leukemia
# OVCAR-8 ovarian = test system: OVCAR-8 ovarian
# DMS 114 small cell lung = test system: DMS 114 small cell lung
# KM12 colon = test system: KM12 colon
# SW-620 colon = test system: SW-620 colon
# SK-MEL-28 melanoma = test system: SK-MEL-28 melanoma
# MOLT-4 leukemia = test system: MOLT-4 leukemia
# LOX IMVI melanoma = test system: LOX IMVI melanoma
# HT29 colon = test system: HT29 colon
# ACHN renal = test system: ACHN renal
# SNB-19 CNS = test system: SNB-19 CNS
# SF-539 CNS = test system: SF-539 CNS
# RPMI-8226 leukemia = test system: RPMI-8226 leukemia
# SF-295 CNS = test system: SF-295 CNS
# UACC-62 melanoma = test system: UACC-62 melanoma
# U251 CNS = test system: U251 CNS
# HCT-15 colon = test system: HCT-15 colon
# NCI-H460 lung = test system: NCI-H460 lung
# RXF 393 renal = test system: RXF 393 renal
# SN12C renal = test system: SN12C renal
# CAKI-1 renal = test system: CAKI-1 renal
# XF 498 CNS = test system: XF 498 CNS
# UACC-257 melanoma = test system: UACC-257 melanoma
# MALME-3M melanoma = test system: MALME-3M melanoma
# SR leukemia = test system: SR leukemia
smiles,measurement,setting,value
COc1ccc(C(N)=O)c(OC)c1OCc1ccccc1,TGI,NCI-H522 lung,81.7 µM
same,TGI,SNB-75 CNS,> 100 µM
same,TGI,EKVX NSCLC,> 100 µM
same,TGI,UO-31 renal,> 100 µM
same,TGI,M19-MEL melanoma,> 100 µM
same,TGI,SNB-78 CNS,> 100 µM
same,TGI,NCI-H23 lung,> 100 µM
same,TGI,COLO 205 colon,> 100 µM
same,TGI,CCRF-CEM leukemia,> 100 µM
same,TGI,A498 renal,> 100 µM
same,TGI,HOP-92 NSCLC,> 100 µM
same,TGI,HOP-62 NSCLC,> 100 µM
same,TGI,HCC-2998 colon,> 100 µM
same,TGI,SK-OV-3 ovarian,> 100 µM
same,TGI,SF-268 CNS,> 100 µM
same,TGI,SK-MEL-5 melanoma,> 100 µM
same,TGI,HCT-116 colon,> 100 µM
same,TGI,SK-MEL-2 melanoma,> 100 µM
same,TGI,OVCAR-3 ovarian,> 100 µM
same,TGI,IGROV1 ovarian,> 100 µM
same,TGI,786-0 renal,> 100 µM
same,TGI,OVCAR-5 ovarian,> 100 µM
same,TGI,KM20L2 colon,> 100 µM
same,TGI,K-562 leukemia,> 100 µM
same,TGI,NCI-H226 lung,> 100 µM
same,TGI,M14 melanoma,> 100 µM
same,TGI,A549 NSCLC,> 100 µM
same,TGI,DMS 273 small cell lung,> 100 µM
same,TGI,OVCAR-4 ovarian,> 100 µM
same,TGI,TK-10 renal,> 100 µM
same,TGI,DLD-1 colon,> 100 µM
same,TGI,LXFL 529 NSCLC,> 100 µM
same,TGI,HL-60(TB) leukemia,> 100 µM
same,TGI,OVCAR-8 ovarian,> 100 µM
same,TGI,DMS 114 small cell lung,> 100 µM
same,TGI,KM12 colon,> 100 µM
same,TGI,SW-620 colon,> 100 µM
same,TGI,SK-MEL-28 melanoma,> 100 µM
same,TGI,MOLT-4 leukemia,> 100 µM
same,TGI,LOX IMVI melanoma,> 100 µM
same,TGI,HT29 colon,> 100 µM
same,TGI,ACHN renal,> 100 µM
same,TGI,SNB-19 CNS,> 100 µM
same,TGI,SF-539 CNS,> 100 µM
same,TGI,RPMI-8226 leukemia,> 100 µM
same,TGI,SF-295 CNS,> 100 µM
same,TGI,UACC-62 melanoma,> 100 µM
same,TGI,U251 CNS,> 100 µM
same,TGI,HCT-15 colon,> 100 µM
same,TGI,NCI-H460 lung,> 100 µM
same,TGI,RXF 393 renal,7.11 µM
same,TGI,SN12C renal,> 100 µM
O=C1NC2C(=O)N(Cc3ccccc3)C(=O)C2N1 (stereo unspecified),TGI,NCI-H522 lung,> 100 µM
same,TGI,SNB-75 CNS,> 100 µM
same,TGI,EKVX NSCLC,> 100 µM
same,TGI,UO-31 renal,> 100 µM
same,TGI,M19-MEL melanoma,> 100 µM
same,TGI,SNB-78 CNS,> 100 µM
same,TGI,NCI-H23 lung,> 100 µM
same,TGI,COLO 205 colon,> 100 µM
same,TGI,CCRF-CEM leukemia,> 100 µM
same,TGI,A498 renal,> 100 µM
same,TGI,HOP-92 NSCLC,> 100 µM
same,TGI,HOP-62 NSCLC,> 100 µM
same,TGI,HCC-2998 colon,> 100 µM
same,TGI,SK-OV-3 ovarian,> 100 µM
same,TGI,SF-268 CNS,> 100 µM
same,TGI,SK-MEL-5 melanoma,> 100 µM
same,TGI,HCT-116 colon,> 100 µM
same,TGI,OVCAR-3 ovarian,> 100 µM
same,TGI,IGROV1 ovarian,> 100 µM
same,TGI,786-0 renal,> 100 µM
same,TGI,CAKI-1 renal,> 100 µM
same,TGI,OVCAR-5 ovarian,> 100 µM
same,TGI,KM20L2 colon,> 100 µM
same,TGI,K-562 leukemia,> 100 µM
same,TGI,NCI-H226 lung,> 100 µM
same,TGI,M14 melanoma,> 100 µM
same,TGI,A549 NSCLC,> 100 µM
same,TGI,OVCAR-4 ovarian,> 100 µM
same,TGI,TK-10 renal,> 100 µM
same,TGI,DLD-1 colon,> 100 µM
same,TGI,LXFL 529 NSCLC,> 100 µM
same,TGI,HL-60(TB) leukemia,> 100 µM
same,TGI,DMS 114 small cell lung,> 100 µM
same,TGI,XF 498 CNS,> 100 µM
same,TGI,KM12 colon,> 100 µM
same,TGI,SW-620 colon,> 100 µM
same,TGI,SK-MEL-28 melanoma,> 100 µM
same,TGI,MOLT-4 leukemia,> 100 µM
same,TGI,UACC-257 melanoma,> 100 µM
same,TGI,MALME-3M melanoma,> 100 µM
same,TGI,LOX IMVI melanoma,> 100 µM
same,TGI,HT29 colon,> 100 µM
same,TGI,ACHN renal,> 100 µM
same,TGI,SNB-19 CNS,> 100 µM
same,TGI,SR leukemia,> 100 µM
same,TGI,SF-539 CNS,> 100 µM
same,TGI,RPMI-8226 leukemia,> 100 µM
same,TGI,SF-295 CNS,> 100 µM
same,TGI,UACC-62 melanoma,> 100 µM
same,TGI,U251 CNS,> 100 µM
same,TGI,HCT-15 colon,> 100 µM
same,TGI,NCI-H460 lung,> 100 µM
same,TGI,RXF 393 renal,> 100 µM
same,TGI,SN12C renal,> 100 µM
